Where “and” joins values, the source holds several entries; their conditions need not be identical. Equal values may be shown once.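 These data come from cells grown in 96-well plates and exposed to compound for 48 hours at five concentrations. GI50: concentration for 50% inhibition of growth. TGI is the concentration that stops growth completely.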

This note sets out measurements from PubChem BioAssay (NCI).

Holding throughout (assay): inhibition of tumour cell growth, NCI panel, 48 h
In assay [1] the test system is HOP-92 NSCLC.
Assay [2] concerns EKVX NSCLC.
In assay [3] the test system is SK-MEL-2 melanoma.
The subject of assay [4] is HOP-62 NSCLC.
The test system of assay [5] is MOLT-4 leukemia.
Assay [6] relates to SNB-19 CNS.
The subject of assay [7] is SK-OV-3 ovarian.
Assay [8] has as its system KM12 colon.
In assay [9] the test system is HCT-116 colon.
In assay [10] the test system is SR leukemia.

As to `CCCCn1c2c(n(CCCC)c1=S)-c1c(n(CCCC)c(=S)n1CCCC)SSc1c(n(CCCC)c(=S)n1CCCC)-c1c(n(CCCC)c(=S)n1CCCC)SSc1c(n(CCCC)c(=S)n1CCCC)-c1c(n(CCCC)c(=S)n1CCCC)SS2`, the TGI is 3.53 µM in assay [1]; more than 50 µM in [2]; 29.3 µM in [3]; more than 50 µM in assay [4]; more than 50 µM in [5]; more than 50 µM in assay [6]. The TGI in assay [7] is more than 50 µM; in assay [8], more than 50 µM; in assay [9], more than 27.7 µM; in assay [10] it was more than 50 µM.
For `Cc1ccc(NC(=O)c2cc(S(=O)(=O)Nc3nc4ncccc4[nH]3)c(SSc3cc(Cl)c(C(=O)Nc4ccc(C)cc4)cc3S(=O)(=O)Nc3nc4ncccc4[nH]3)cc2Cl)cc1`, the TGI in assay [1], in assay [2], in [3], in assay [4], in assay [5] and in [6] was more than 100 µM each time. For the same compound, the TGI in [7], in assay [8], in assay [9] and in assay [10] was more than 100 µM throughout.
Turning to `COc1cc(/C=C/C(=O)C2(C(=O)/C=C/c3cc(OC)c(OC)c(OC)c3)CCCCC2)cc(OC)c1OC`, the TGI in assay [1] was 68 µM; in assay [2], more than 100 µM; in [3] it was more than 100 µM; in [4], more than 100 µM; in assay [6] it was more than 100 µM; in assay [7], more than 100 µM. The values for the TGI in assay [8], in assay [9] and in assay [10] were 75.9 µM, more than 100 µM and more than 100 µM, respectively.
Consider `O=C1c2ccc(O)c(O)c2C(=O)c2c(O)ccc(O)c21`, for which the TGI came out at 57.7 µM in [1]; 67.4 µM in assay [2]; 66.5 µM in assay [3]; 65.4 µM in assay [4]; 62.2 µM in assay [5]; 85.3 µM in [6]. The TGI in assay [7] came to 72.8 µM; in assay [8], 98.9 µM; in [9], 45.2 µM; in assay [10], 93.7 µM.
As for `COc1ccc(/C=C2\CCC(C)C3=C2N=c2s/c(=C/c4cccc(Br)c4)c(=O)n2C3c2ccc(OC)c(OC)c2)cc1OC` (stereo unspecified), the TGI in assay [1], in assay [2], in assay [3], in assay [4], in assay [5] and in assay [6] was more than 100 µM throughout. Also, the TGI in assay [7], in assay [8], in assay [9] and in assay [10] was more than 100 µM in each case.
With `N#Cc1c(N)nc(Sc2ccccc2N)c(C#N)c1-c1ccc(Cl)cc1`, the TGI in assay [1] is 53.1 µM; in assay [2], more than 56.1 µM; in [3], 18.2 µM; in [4] it was 17.2 µM; in assay [5], more than 24.6 µM; in assay [6], more than 56.6 µM. In addition, the TGI in assay [7] is 40.6 µM; in assay [8], 35.9 µM; in [9] it was more than 72.6 µM; in assay [10], more than 40.5 µM.
Turning to `CCCCCCCCCCCCC(O)[C@H]1CC[C@H](C(O)CCCCCC(=O)CCCCC2CC(C(C)=O)C(=O)O2)O1` (stereo partly specified), the GI50 is 3.23 µM in [1]; 3.24 µM in [2]; 2.81 µM and 2.14 µM in assay [5]; 4.56 µM in assay [6]; 4.2 µM in assay [8]; 7.23 µM in assay [9]. Besides, the GI50 in [10] is 1.76 µM. In addition, the TGI in [1] stood at 31.7 µM; in [2], 54.8 µM; in assay [3], 28.3 µM; in assay [4], 26.6 µM; in assay [5], 23.4 µM; in [6], 73.9 µM. Further, the TGI in assay [7] was 28 µM; in [8], 24.3 µM; in assay [9], 36 µM; in assay [10] it was more than 38.1 µM.
For `CC(=O)Nc1ccc(C2SCc3nc4ccccc4n32)cc1` (stereo unspecified), the TGI in [1], in [2], in [3], in assay [4], in assay [5] and in [6] was more than 100 µM in each case. Besides, the TGI in assay [7], in [8], in assay [9] and in [10] was more than 100 µM throughout.
Regarding `Cc1cc(=O)oc2c(CNC(Cc3ccccc3)C(=O)O)c(O)ccc12` (stereo unspecified), the TGI in [1], in [2], in assay [3], in [4], in assay [5] and in assay [6] was more than 100 µM throughout. Besides, the TGI in assay [7], in assay [8], in assay [9] and in [10] was more than 100 µM in each case.
Turning to `O=[N+]([O-])c1ccc(N/N=C/c2ccc(OCCCCCCCCCCCO)cc2)c([N+](=O)[O-])c1`, the TGI in [1] was 14.6 µM; in assay [2] it was 52.1 µM; in [3] it was 56.1 µM; in assay [4], 19.6 µM; in assay [5], more than 100 µM; in assay [6], 27.1 µM. Besides, the TGI was 11.6 µM in assay [7], 7.84 µM in assay [8], more than 43.7 µM in [9] and 8.94 µM in assay [10].
In the case of `N[C@H]1CCCC[C@@H]1N1C(=O)c2ccccc2C1(O)c1ccc(Cl)cc1` (stereo partly specified), the TGI amounted to 24.9 µM in [1]; 30.1 µM in [2]; 30.6 µM in assay [3]; 29.6 µM in [4]; 19.2 µM in assay [5]; 27.6 µM in [6]. The TGI in assay [7] turned out to be 29.8 µM; in [8], 9.75 µM; in [9] it was 21.9 µM; in assay [10], 29.9 µM.
Consider `COC(=O)C1OC(O[C@H]2CC[C@]3(C)[C@H]4CC=C5[C@@H]6CC(C)(C)CC[C@]6(C(=O)OC6OCC(O)C(O)C6OC6OC(C)C(OC7OCC(O)C(O)C7O)C(O)C6O)CC[C@@]5(C)[C@]4(C)CC[C@H]3C2(C)C)C(O)C(O)C1O` (stereo partly specified), for which the TGI in assay [1] was 30.9 µM and 39.4 µM; in assay [2], 33.7 µM and 32 µM; in assay [3] it was 31.8 µM and 34.7 µM; in assay [4], 33.2 µM and 32.6 µM; in [5], 38.9 µM and 45 µM; in assay [6], 31.2 µM and 27.2 µM. Besides, the TGI was 35.9 µM and 36.7 µM in assay [7]; 30.3 µM in assay [8]; 33.1 µM and 37.5 µM in assay [9]; 32 µM and 24.9 µM in assay [10].
